# According to paper PMC12406203 (Journal of Medicinal Chemistry, 2025):
# Where “and” joins values, the source holds several entries; their conditions need not be identical. Identical values can stand only once. Like-named read-outs stand apart in the source and are kept apart here.
# Columns and labels:
# hAChE [1] = biological target: T1, hAChE (Homo sapiens, UniProt P22303); settings: residual activity at 100 μM; mean ± SD, one experiment in triplicate
# Description: (§1) The inhibitory potencies of the compounds against the ChEs were determined using the method of Ellman. […] The final content of DMSO was always 1% [v/v]. […] The initial velocities in the presence (v i ) and absence (v 0) of the test compounds were calculated. The inhibitory potencies were expressed as the residual activities, according to RA = (v i – b)/(v 0 – b), where b is the blank value using phosphate buffer without ChEs. For IC50 determinations, at least seven different concentrations for each compound were used. The IC50 values were obtained by plotting the residual ChE activities against the applied inhibitor concentrations, with the experimental data fitted to a four-parameter logistic function (GraphPad Prism 10.0).
# human p38α MAPK [2] = biological target: T2, human p38α MAPK (Homo sapiens, UniProt Q16539); settings: for p38α MAPK RA at 100 μM: residual activity at 100 μM, mean ± SD, one experiment in triplicate
# Description: (§2) The inhibitory activities against human p38α MAPK were evaluated using the commercially available ADP-Glo Kinase Assay (Promega, Inc., USA).
# (§3) For the reference sample, 1% [v/v] DMSO replaced the inhibitor solution. […] The enzyme reaction was started with the addition of the enzyme solution. The DMSO concentration in the test solution was maintained at 1% [v/v]. The plate was incubated for 60 min. Then 5 μL of ADP-Glo reagent was added, followed by a 40 min incubation at room temperature. […] All incubations were performed at room temperature. The RA and IC50 values were calculated as described above (ChEs inhibitory potency).
# hBChE [3] = biological target: T3, hBChE (Homo sapiens, UniProt P06276); settings: for hBChE RA at 100 μM: residual activity at 100 μM, mean ± SD, one experiment in triplicate
# Description: as §1
# hAChE [4] = biological target: T1, hAChE; test: biochemical; settings: hAChE IC50 ± SEM, two independent experiments, each in triplicate
# Description: as §1
# p38α MAPK [5] = biological target: p38α MAPK
# hAChE [6] = biological target: hAChE
# human p38α MAPK [7] = biological target: T2, human p38α MAPK; test: biochemical; settings: p38α MAPK IC50 ± SEM, two independent experiments, each in triplicate
# Description: as §2, §3
# hBChE [8] = biological target: T3, hBChE; test: biochemical; settings: hBChE IC50 ± SEM, two independent experiments, each in triplicate
# Description: as §1
# p38α MAPK [9] = biological target: p38α MAPK; remark: listed apart in the source
# hAChE [10] = biological target: hAChE; remark: listed apart in the source
# hBChE [11] = biological target: hBChE
# hBChE [12] = biological target: hBChE; remark: listed apart in the source
# T2 sequence (Q16539 whole entry): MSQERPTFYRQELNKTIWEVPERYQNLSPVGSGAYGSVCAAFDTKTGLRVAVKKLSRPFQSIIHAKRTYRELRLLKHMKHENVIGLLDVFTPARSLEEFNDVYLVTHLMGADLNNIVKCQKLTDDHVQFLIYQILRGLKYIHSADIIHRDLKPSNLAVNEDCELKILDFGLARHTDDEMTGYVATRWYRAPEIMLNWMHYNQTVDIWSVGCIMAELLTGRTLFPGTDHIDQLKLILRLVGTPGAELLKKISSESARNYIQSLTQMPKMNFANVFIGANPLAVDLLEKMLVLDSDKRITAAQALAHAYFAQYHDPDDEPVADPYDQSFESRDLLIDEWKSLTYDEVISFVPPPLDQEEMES
# T3 sequence (P06276 29-602): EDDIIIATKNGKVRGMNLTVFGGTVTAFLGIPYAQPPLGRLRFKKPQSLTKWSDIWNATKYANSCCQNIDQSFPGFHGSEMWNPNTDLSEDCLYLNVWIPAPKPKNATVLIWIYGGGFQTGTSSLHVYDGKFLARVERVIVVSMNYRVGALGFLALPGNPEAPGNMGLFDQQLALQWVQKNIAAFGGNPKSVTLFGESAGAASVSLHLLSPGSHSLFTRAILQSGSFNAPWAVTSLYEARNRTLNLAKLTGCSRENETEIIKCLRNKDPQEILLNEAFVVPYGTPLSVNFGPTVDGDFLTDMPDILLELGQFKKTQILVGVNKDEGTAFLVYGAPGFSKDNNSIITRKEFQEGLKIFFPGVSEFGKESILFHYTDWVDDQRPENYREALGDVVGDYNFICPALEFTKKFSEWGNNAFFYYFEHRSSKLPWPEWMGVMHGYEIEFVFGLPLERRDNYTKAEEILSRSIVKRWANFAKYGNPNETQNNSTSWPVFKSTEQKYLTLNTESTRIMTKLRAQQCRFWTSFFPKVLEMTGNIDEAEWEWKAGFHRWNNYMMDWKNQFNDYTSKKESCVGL
# T1 sequence (P22303 32-614): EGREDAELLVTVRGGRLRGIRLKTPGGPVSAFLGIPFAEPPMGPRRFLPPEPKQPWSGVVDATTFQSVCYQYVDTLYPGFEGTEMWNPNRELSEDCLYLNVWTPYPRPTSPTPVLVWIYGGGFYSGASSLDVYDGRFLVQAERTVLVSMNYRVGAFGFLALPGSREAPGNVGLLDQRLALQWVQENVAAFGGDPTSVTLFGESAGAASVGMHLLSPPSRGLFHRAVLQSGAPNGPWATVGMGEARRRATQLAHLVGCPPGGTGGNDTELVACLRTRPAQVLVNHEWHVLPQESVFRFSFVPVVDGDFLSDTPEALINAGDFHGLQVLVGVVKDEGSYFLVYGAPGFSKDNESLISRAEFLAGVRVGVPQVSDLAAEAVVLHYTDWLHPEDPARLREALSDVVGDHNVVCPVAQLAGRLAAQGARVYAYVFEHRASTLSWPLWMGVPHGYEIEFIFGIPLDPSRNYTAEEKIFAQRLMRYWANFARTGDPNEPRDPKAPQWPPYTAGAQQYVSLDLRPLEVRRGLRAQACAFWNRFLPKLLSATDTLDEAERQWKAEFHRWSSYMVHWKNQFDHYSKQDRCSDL
Molecule,hAChE RA at 100 μM (hAChE [1]),p38α MAPK RA at 100 μM (human p38α MAPK [2]),IC50 (hAChE [4]) [µM],IC50 (human p38α MAPK [7]) [µM],IC50 (hBChE [8]),RA at 100 µM (hAChE [10]) [%],RA at 100 µM (p38α MAPK [9]) [%],further results
"5-(2,4-Difluorobenzyl)-N-(2-(dimethylamino)ethyl)-1-methyl-2H-indazole-6-carboxamide [Compound 109]",81.4 ± 7.5%,89.6% and 89.6 ± 13.6%,–,–,–,–,–,"IC50 (hBChE [3]; read-out: hBChE IC50 ± SEM, two independent experiments, each in triplicate): 1.06 ± 0.97 µM"
"CO/N=C(\C(=O)N[C@@H]1C(=O)N2C(C(=O)O)=C(COC(N)=O)CS[C@H]12)c1ccco1 [Cefuroxime, reference compound]",–,–,–,–,–,–,–,CNS (+/–) (PAMPA): CNS– (key: CNS+ indicates high predicted BBB permeation [Pe (×10–6 cm/s) > 4.0]; CNS– indicates low predicted BBB permeation [Pe (×10–6 cm/s) < 2.0])
"CN(C)CCNC(=O)c1cc2c(cnn2CC2CC2)cc1Oc1ccc(F)cc1F [Compound 73, 1-(Cyclopropylmethyl)-5-(2,4-difluorophenoxy)-N-(2-(dimethylamino)ethyl)-1H-indazole-6-carboxamide]",–,–,83.9 ± 28.9,0.362 ± 0.139,10.5 ± 1.51 µM,–,–,IC50 (p38α MAPK [5]): 0.362 µM; IC50 (hAChE [6]): 83.9 µM
"CN(C)CCCNC(=O)c1cc2c(cnn2CC2CC2)cc1Oc1ccc(F)cc1F [Compound 74, 1-(Cyclopropylmethyl)-5-(2,4-difluorophenoxy)-N-(3-(dimethylamino)propyl)-1H-indazole-6-carboxamide]",–,–,110 ± 38.4,0.096 ± 0.011,8.68 ± 1.83 µM,–,–,IC50 (p38α MAPK [9]): 0.096 µM; IC50 (hAChE [10]): 110 µM
"CN(C)CCNC(=O)c1cc2c(cnn2CC2CCCCC2)cc1Oc1ccc(F)cc1F [Compound 75, 1-(Cyclohexylmethyl)-5-(2,4-difluorophenoxy)-N-(2-(dimethylamino)ethyl)-1H-indazole-6-carboxamide]",–,–,64.4 ± 24.5,0.142 ± 0.079,2.89 µM and 2.9 µM,–,–,IC50 (p38α MAPK [5]): 0.142 µM; IC50 (hAChE [6]): 64.4 µM; IC50 (hAChE [10]): 64.4 µM
"CN(C)CCNC(=O)c1cc2c(cnn2C2C=CCCC2)cc1Oc1ccc(F)cc1F (stereo not drawn) [Compound 83, 1-(Cyclohex-2-en-1-yl)-5-(2,4-difluorophenoxy)-N-(2-(dimethylamino)ethyl)-1H-indazole-6-carboxamide]",52.9% and 53 ± 3% and 52.9 ± 2.7%,–,–,0.088 ± 0.02,8.35 µM,52.9 ± 2.7,–,IC50 (hBChE [11]): 8.35 µM; IC50 (p38α MAPK [5]): 0.088 µM; RA at 100 µM (hAChE [6]): 53 ± 3%; IC50 (hBChE [12]): 8.35 µM
"CC(C)Cn1ncc2cc(Oc3cccc4ccccc34)c(C(=O)NCCN(C)C)cc21 [Compound 89, N-(2-(Dimethylamino)ethyl)-1-isobutyl-5-(naphthalen-1-yloxy)-1H-indazole-6-carboxamide]",–,0.9 ± 0.3% and 1 ± 0%,61.3,–,10.6 µM,–,0.9 ± 0.3,RA (1 μM) (p38α MAPK [5]): RA (1 μM): 24 ± 0%; RA (10 μM) (p38α MAPK [5]): RA (10 μM): 5 ± 0%; RA (100 μM) (p38α MAPK [5]): RA (100 μM): 1 ± 0%; p38α MAPK RA (1 μM) (human p38α MAPK [2]; residual activity at 1 μM): 24 ± 0%; p38α MAPK RA (10 μM) (human p38α MAPK [2]; residual activity at 10 μM): 5 ± 0%; IC50 (hAChE [6]): 61.3 µM; IC50 (hAChE [10]): 61.3 µM
"CC(C)Cn1ncc2cc(Oc3ccc4ccccc4c3)c(C(=O)NCCN(C)C)cc21 [Compound 90, N-(2-(Dimethylamino)ethyl)-1-isobutyl-5-(naphthalen-2-yloxy)-1H-indazole-6-carboxamide]",–,9.5 ± 0.6%,116 ± 27.8,–,11.5 ± 2 µM,–,9.5 ± 0.6,IC50 (hAChE [10]): 116 µM
"COc1ccc(Oc2cc3cnn(CC(C)C)c3cc2C(=O)NCCN(C)C)cc1 [Compound 91, N-(2-(Dimethylamino)ethyl)-1-isobutyl-5-(4-methoxyphenoxy)-1H-indazole-6-carboxamide]",75.2% and 75.2 ± 3.8%,0.9 ± 0.3%,–,–,–,75.2 ± 3.8,0.9 ± 0.3,hBChE RA at 100 μM (hBChE [3]): 54.1% and 54.1 ± 1.3%; RA at 100 µM (hBChE [12]): 54.1 ± 1.3%
"CC(C)Cn1ncc2cc(Sc3ccc(F)cc3F)c(C(=O)NCCN(C)C)cc21 [Compound 92, 5-((2,4-Difluorophenyl)thio)-N-(2-(dimethylamino)ethyl)-1-isobutyl-1H-indazole-6-carboxamide]",62.8% and 63 ± 3% and 62.8 ± 3.0%,–,–,0.053 ± 0.017,2.25 µM,62.8 ± 3.0,–,IC50 (hBChE [11]): 2.25 µM; IC50 (p38α MAPK [5]): 0.053 µM; RA at 100 µM (hAChE [6]): 63 ± 3%; IC50 (hBChE [12]): 2.25 µM
"CC(C)Cn1ncc2cc(S(=O)(=O)c3ccc(F)cc3F)c(C(=O)NCCN(C)C)cc21 [Compound 93, 5-((2,4-Difluorophenyl)sulfonyl)-N-(2-(dimethylamino)ethyl)-1-isobutyl-1H-indazole-6-carboxamide]",98.0% and 98.0 ± 2.7%,5.9 ± 0.2%,–,–,–,98.0 ± 2.7,5.9 ± 0.2,hBChE RA at 100 μM (hBChE [3]): 77.6% and 77.6 ± 3.1%; RA at 100 µM (hBChE [12]): 77.6 ± 3.1%
"CN(C)CCNC(=O)c1cc2nn(CC3CCCCC3)cc2cc1Oc1ccc(F)cc1F [Compound 99, 2-(Cyclohexylmethyl)-5-(2,4-difluorophenoxy)-N-(2-(dimethylamino)ethyl)-2H-indazole-6-carboxamide]",–,–,28.9 ± 8.16,6.78 ± 2.85,0.167 ± 0.0203 µM,–,–,IC50 (p38α MAPK [5]): 6.78 µM; IC50 (hAChE [6]): 28.9 µM
"CN(C)CCCNC(=O)c1cc2nn(CC3CCCCC3)cc2cc1Oc1ccc(F)cc1F [Compound 100, 2-(Cyclohexylmethyl)-5-(2,4-difluorophenoxy)-N-(3-(dimethylamino)propyl)-2H-indazole-6-carboxamide]",–,–,41.9 ± 13.9,16.2 ± 2.97,0.499 ± 0.045 µM,–,–,IC50 (p38α MAPK [9]): 16.2 µM; IC50 (hAChE [10]): 41.9 µM
COC1CCCN(CCNC(=O)c2cc3nn(CC4CCCCC4)cc3cc2Oc2ccc(F)cc2F)C1 (stereo not drawn) [Compound 101],51.8 ± 1.6%,94.3% and 94.3 ± 2.4%,–,–,0.184 ± 0.031 µM,51.8 ± 1.6,94.3 ± 2.4,IC50 (hBChE [12]): 0.184 µM
O=C(NCCN1CCOCC1)c1cc2nn(CC3CCCCC3)cc2cc1Oc1ccc(F)cc1F [Compound 103],78.3 ± 2.1%,66.8% and 66.8 ± 5.9%,–,–,10.8 ± 2.07 µM,78.3 ± 2.1,66.8 ± 5.9,IC50 (hBChE [12]): 10.8 µM
"O/N=C/c1cc[n+](COC[n+]2ccc(/C=N/O)cc2)cc1 [Obidoxime, reference compound]",–,–,–,–,–,–,–,CNS (+/–) (predicted BBB permeation from Pe): CNS– (CNS– indicates low predicted BBB permeation [Pe (×10–6 cm/s) < 2.0])
"Methyl-1-(cyclopropylmethyl)-5-(2,4-difluorophenoxy)-1H-indazole-6-carboxylate [Compound 27]",81.1% and 81.1 ± 2.3%,–,–,–,–,–,–,"IC50 (human p38α MAPK [2]; read-out: p38α MAPK IC50 ± SEM, two independent experiments, each in triplicate): 0.33 ± 0.158 µM; hBChE RA at 100 μM (hBChE [3]): 76.6% and 76.6 ± 11.7%"
"N-(2-(1H-Pyrrol-1-yl)ethyl)-1-(cyclohexylmethyl)-5-(2,4-difluorophenoxy)-2H-indazole-6-carboxamide [Compound 104]",67.6 ± 2.3%,81.2% and 81.2 ± 6.6%,–,–,–,–,–,hBChE RA at 100 μM (hBChE [3]): 34.4±1.5%
